Source: US12714657B2, “Magnolia extract containing compositions” (MARY KAY INC., priority 2007, dated 2026)

Columns and labels:
Mushroom Tyrosinase = assay: Tyrosinase activity, modified Pomerantz method; format: biochemical; details: H20 = 100.0
Protocol: Tyrosinase activity was measured by the modified Pomerantz method (Biophys Res Commun, 1964). Mushroom Tyrosinase (Sigma #3212816630) stock enzyme was 5 U/well (25 U/ml). The substrate (I-DOPA, Fisher Scientific, Pittsburgh, PA) stock solution was 20 mM. Working solution was prepared in PBS for each assay. The reaction mixture consisted of 50 μl 20 mM I-DOPA and 10 μl undiluted test sample. Reaction was initiated by adding tyrosinase. Assays were preformed in 96 well flat-bottom microtiter plates (Fisher #0720087) and read at 490 nm after 5, 10, and 20 min.

Human melanocytes = assay: Melanin production assay in melanocytes; format: cell-based; details: 6 days
Protocol: Materials and Methods: Human melanocytes from a moderately pigmented donor were purchased from Cascade Biologics (Portland, Oregon). Human dermal fibroblasts were purchased from Cambrex (Rockland, ME). In order to determine the optimal concentrations of the test materials for the whitening experiment, these materials were first examined in a proliferation assay with human dermal fibroblasts. The highest non-interfering concentration was determined for each test material and further 5-fold dilutions were made for use in melanocytes cultures. The following assay was used to the effects of the materials on melanin production. Melanocytes were seeded in the fully-supplemented 254 medium (Cascade) in 96 well plates and test materials were added 24 h later. Cells were grown for 6 days with one growth medium change. At the end of the experiment, cells were lysed with the Cellytic Mammalian Cell Lysis/Extraction Reagent (Sigma, St. Louis, MO) and melanin was solubilized in 2N NaOH. Melanin content was determined spectrophotometrically at 405 nm and standardized to total protein content from the same cultures, using Bradford reagent (Sigma, St. Louis, MO). Kojic acid was used as positive control. Cell cultures were monitored on a Nikon Eclipse inverted microscope.

| Structure (SMILES) | Tyrosinase activity, % of water control (Mushroom Tyrosinase; read at 490 nm after 5 min) | Tyrosinase activity, % of water control (Mushroom Tyrosinase; read at 490 nm after 10 min) | Tyrosinase activity, % of water control (Mushroom Tyrosinase; read at 490 nm after 20 min) | Melanin content (% of water control) (Human melanocytes; Dilution Factor 1/25-1/125, H20 = 100%) | activity at 200 µM (Human melanocytes; Melanocyte, 144 h, 200 μM, H20 = 100%, read-out: Melanin Inhibition in Cells) [%] |
| --- | --- | --- | --- | --- | --- |
| O=C1O[C@H]([C@@H](O)CO)C(O)=C1O[C@H]1O[C@H](CO)[C@@H](O)[C@H](O)[C@H]1O [Ascorbyl Glucoside, Ascorbyl glucoside] | 33.8 | 30.6 | 30.1 | 75-65.5% |  |
| O=c1cc(CO)occ1O [Kojic acid] | 39.0 | 35.5 | 33.1 |  | 83 |
